Results from patent US11579152B2, “Engineered hERG channel proteins, vesicles and methods of identifying small molecule pharmacological agents” (priority 2016, dated 2023).
Where two headings read alike, the source gives them in different places.

How the values were obtained:
hERG channel [1] = target: T1, hERG channel (Homo sapiens, UniProt Q12809, DEL141-380/DEL871-1005); assay: in vitro; details: pH 7.4
hERG channel [2] = target: T1, hERG channel; assay: biochemical
hERG = hERG (Homo sapiens, UniProt Q12809); details: cited from earlier work
hERG channel [3] = target: T1, hERG channel; assay: liposome flux assay (LFA) with engineered hERG channel protein in proteoliposomes; details: n = 3, mean ± SEM, compared with DMSO controls
hERG channel [4] = target: T1, hERG channel
[5] = read-out: IC50 patch, electrophysiology-determined values reported in the literature

Molecule	inhibition at 100 µM (hERG channel [1])	further results
CC(=O)Nc1ccc(O)cc1 [Acetaminophen]	11.6 ± 7.5%	
CC(=O)Nc1nnc(S(N)(=O)=O)s1 [Acetazolamide]	4.4 ± 1.8%	
CCN(CC)CCCN(c1ccccc1)C1Cc2ccccc2C1 [Aprindine]		IC50 (hERG channel [2]): 1.88 ± 0.221 µM; IC50 (hERG; [5]): 0.23 µM
NC[C@H](O)c1ccc(O)c(O)c1 [Arterenol]		Percentage inhibition (%) at 100 μM (hERG channel [3]): 3.7 ± 4.3%
CN1CCN(CCCCN2C(=O)CN(/N=C/c3ccc(-c4ccc(Cl)cc4)o3)C2=O)CC1 [Azimilide]		IC50 (hERG channel [2]): 4.28 ± 1.03 µM; IC50 (hERG; [5]): 0.891 µM
CCCCOc1ccc(CC(=O)NO)cc1 [Bufexamac]	1.7 ± 6.8%	
C[N+](C)(C)CCOC(N)=O [Carbachol]	2.2 ± 4.2%	
CN/C(=N/CCSCc1nc[nH]c1C)NC#N [Cimetidine]	19.9 ± 3.7%	
Clc1cccc(Cl)c1N=C1NCCN1 [Clonidine]	15.2 ± 5.8%	
C[N+]1([O-])CCN(C2=Nc3cc(Cl)ccc3Nc3ccccc32)CC1 [Clozapine N-oxide]		Percentage inhibition (%) at 100 μM (hERG channel [4]; 100 µM): 2.1 ± 3.0%
C=C(CC)C(=O)c1ccc(OCC(=O)O)c(Cl)c1Cl [Ethacrynic acid]	8.1 ± 4.4%	
COc1ccccc1OCC(O)CO (centres unmarked) [Guaifenesin]	-3.5 ± 7.4%	
CC(C)Cc1ccc(C(C)C(=O)O)cc1 (centres unmarked) [Ibuprofen]	13.1 ± 2.1%	
CC(C(O)c1ccc(O)cc1)N1CCC(Cc2ccccc2)CC1 (centres unmarked) [Ifenprodil]		IC50 (hERG channel [2]): 1.59 ± 0.071 µM; IC50 (hERG; [5]): 0.41 µM
CC1Cc2ccccc2N1NC(=O)c1ccc(Cl)c(S(N)(=O)=O)c1 (centres unmarked) [Indapamide]	4.8 ± 6.7%	
N=C(N)SCCc1ccc(OCc2ccc([N+](=O)[O-])cc2)cc1 [KB-R7943]		IC50 (hERG; [5]): 0.089 µM; IC50 (hERG channel [4]): 1.78 ± 0.14 µM
CN(C)c1ccc(O)c2c1C[C@H]1C[C@H]3[C@H](N(C)C)C(O)=C(C(N)=O)C(=O)[C@@]3(O)C(O)=C1C2=O [Minocycline]	-2.5 ± 11.9%	
CC1(C)O[C@H]1COc1c2ccoc2cc2oc(=O)ccc12 [Oxypeucedanin]	4.5 ± 19.3%	
CC1=C(CC(=O)O)c2cc(F)ccc2/C1=C\c1ccc([S+](C)[O-])cc1 (centres unmarked) [Sulindac]	1.1 ± 2.8%	
O=c1n(CCCN2CCN(c3cccc(Cl)c3)CC2)nc2ccccn12 [Trazadone]		IC50 (hERG): 0.69 to 2.9 µM; IC50 (hERG channel [4]): 9.25 ± 0.529 µM
COc1cc(Cc2cnc(N)nc2N)cc(OC)c1OC [Trimethoprim]	20.6 ± 1.9%	
CC(=O)CC(c1ccccc1)c1c(O)c2ccccc2oc1=O (centres unmarked) [Warfarin]	9.1 ± 5.5%	
COC[C@H]1OC(=O)c2coc3c2[C@@]1(C)C1=C(C3=O)[C@@H]2CCC(=O)[C@@]2(C)C[C@H]1OC(C)=O [Wortmannin]	1.7 ± 5.8%	
Penicillin		Percentage inhibition (%) at 100 μM (hERG channel [3]): −0.4 ± 9.5%
